These are literature values, as cited in patent US11766438B2, “Pharmaceutical compositions of tofacitinib for oral administration” (Slayback Pharma LLC, priority 2020, dated 2023).

Where two headings read alike, the source gives them in different places.

Usually Solubility stands for the concentration that dissolves in the medium under given conditions. Take `C[C@@H]1CCN(C(=O)CC#N)C[C@@H]1N(C)c1ncnc2[nH]ccc12.O=C(O)CC(O)(CC(=O)O)C(=O)O` [Tofacitinib citrate, (3R,4R)-4-methyl-3-(methyl-7H-pyrrolo[2,3-d]pyrimidin-4-ylamino)-β-oxo-1-piperidinepropanenitrile, 2-hydroxy-1,2,3-propanetricarboxylate (1:1)]: the Solubility (aqueous solution of pH 1 to 3.9) is 3480 to 28000 µg/mL and the Solubility (aqueous solution of pH 4.53 to 8) was 200 to 590 µg/mL.
